In US10544136B2, “Modulators of sphingosine phosphate receptors” (The Scripps Research Institute, priority 2008, dated 2020):
Like-named read-outs stand apart in the source and are kept apart here.

Key:
S1P1 = S1P1 (Homo sapiens (Human), UniProt P21453); test: S1P1 agonist assay (Ec50 S1P1Ag); assay type: cell-based
Excerpt: The exact dosage will depend upon the activity of the compound, mode of administration, on the therapy desired, form in which administered, the subject to be treated and the body weight of the subject to be treated, and the preference and experience of the physician or veterinarian in charge. S1P1 agonist bioactivity of the compounds of the invention can be determined by use of an in vitro assay system which measures the activation of S1P1, which can be expressed as EC50 values, as are well known in the art inhibitors of the invention can be determined by the method described in the Examples.

S1P3 = S1P3 (Homo sapiens (Human), UniProt Q99500); test: S1P3 agonist assay (Ec50 S1P3Ag); assay type: cell-based; conditions: read-out: Ec 50 (S1P3Ag)
Chain of S1P3 (Q99500 whole entry, species assumed): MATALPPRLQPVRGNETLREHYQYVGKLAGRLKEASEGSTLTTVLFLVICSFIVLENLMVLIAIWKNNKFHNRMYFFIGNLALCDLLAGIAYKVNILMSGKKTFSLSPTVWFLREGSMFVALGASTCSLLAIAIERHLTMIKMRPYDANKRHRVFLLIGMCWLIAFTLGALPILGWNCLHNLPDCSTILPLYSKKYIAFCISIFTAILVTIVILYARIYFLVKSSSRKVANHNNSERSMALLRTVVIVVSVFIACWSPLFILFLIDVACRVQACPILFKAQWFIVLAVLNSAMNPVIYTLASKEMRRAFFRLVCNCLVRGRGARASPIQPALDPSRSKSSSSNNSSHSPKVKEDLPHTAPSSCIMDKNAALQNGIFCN

Chain of S1P1 (P21453 whole entry): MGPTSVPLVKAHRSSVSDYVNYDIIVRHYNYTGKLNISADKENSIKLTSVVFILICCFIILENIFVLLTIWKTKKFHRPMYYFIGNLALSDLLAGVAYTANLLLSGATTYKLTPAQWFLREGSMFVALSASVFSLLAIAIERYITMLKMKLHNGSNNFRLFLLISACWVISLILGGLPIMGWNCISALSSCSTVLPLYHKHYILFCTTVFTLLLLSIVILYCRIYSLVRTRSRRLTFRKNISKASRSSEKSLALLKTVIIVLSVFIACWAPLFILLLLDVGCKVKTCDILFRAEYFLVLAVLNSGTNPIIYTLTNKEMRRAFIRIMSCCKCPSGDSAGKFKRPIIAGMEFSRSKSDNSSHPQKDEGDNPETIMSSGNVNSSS

EC50 (S1P1; unit μM/uM) [µM]	EC50 (S1P3) [µM]	EC50 (S1P1) [µM]	EC50 (S1P3; unit μM) [µM]	SMILES
4.1	5.1	–	–	FC(F)(F)c1ccc(-c2noc(Cc3ccncc3)n2)cc1 [Compound 5]
–	0.782	0.27	–	FC(F)(F)c1ccc(-c2noc(-c3ccnc(Cl)c3)n2)cc1 [Compound 7]
–	3.33	0.246	–	CCCOc1ccc(-c2nc(-c3ccncc3)no2)cc1 [Compound 10]
–	1.2	0.0033	–	CC(C)Cc1ccc(C(C)c2nc(-c3ccc(S(N)(=O)=O)cc3)no2)cc1 (centres unmarked) [Compound 16]
–	3.5	3.3	–	COc1cc(-c2noc(-c3ccnc(C)c3)n2)ccc1C [Compound 23]
–	0.661	0.0037	–	CCOc1ccc(-c2nc(-c3ccncc3)no2)cc1OCC [Compound 35]
–	0.387	0.0017	–	CCOc1ccc(-c2nc(-c3ccnc(N)c3)no2)cc1OCC [Compound 36]
–	2.7	0.064	–	CCOc1cc(-c2nc(-c3ccncc3)no2)ccc1OC [Compound 50]
–	0.327	0.156	–	CC(C)(C)c1cc(-c2nc(-c3ccncc3)no2)cc(C(C)(C)C)c1 [Compound 53]
–	0.322	0.0716	–	COc1ccc(-c2nc(-c3ccncc3)no2)cc1OC1CCCC1 [Compound 54]
–	0.448	0.113	–	CC(C)Cc1ccc(C(C)c2nc(-c3ccncc3)no2)cc1 (centres unmarked) [Compound 55]
–	3.4	0.0117	–	CCOc1ccc(-c2nc(-c3cncc(C)c3)no2)cc1OCC [Compound 58]
–	5.6	0.0108	–	FC(F)(F)c1cc(-c2nc(-c3ccncc3)no2)ccc1-c1ccccc1 [Compound 59]
–	0.803	0.001	–	Cc1cnccc1-c1noc(-c2ccc(-c3ccccc3)c(C(F)(F)F)c2)n1 [Compound 60]
–	1.32	0.00078	–	Nc1cc(-c2noc(-c3ccc(-c4ccccc4)c(C(F)(F)F)c3)n2)ccn1 [Compound 61]
–	–	0.005	24	Cc1cncc(-c2noc(-c3ccc(-c4ccccc4)c(C(F)(F)F)c3)n2)c1 [Compound 62]
–	3.5	0.264	–	FC(F)(F)c1cc(-c2nc(-c3ccncc3)no2)cc(C(F)(F)F)c1 [Compound 104]
–	8	0.063	–	FC(F)(F)c1cc(Br)cc(-c2nc(-c3ccncc3)no2)c1 [Compound 106]
–	0.823	0.00052	–	CCOc1ccc(-c2nc(-c3cccc4[nH]ccc34)no2)cc1OCC [Compound 110]
–	0.529	0.0002	–	CCOc1ccc(-c2nc(-c3cccc4c3CCN4)no2)cc1OCC [Compound 123]
–	5.2	0.0041	–	CCOc1ccc(-c2nc(-c3cccc(CN(C)C)c3C)no2)cc1OCC [Compound 129]

EC50 (S1P1; unit μM/uM) [µM]	EC50 (S1P3) [µM]	EC50 (S1P1) [µM]	EC50 (S1P3; unit μM) [µM]	SMILES
–	2.4	0.0059	–	CCOc1ccc(-c2nc(-c3cccc4c3CCN4C)no2)cc1OCC [Compound 151]
–	2.1	0.006	–	CCOc1ccc(-c2nc(-c3cccc(CN4CCCC4)c3C)no2)cc1OCC [Compound 152]
–	2	0.0069	–	CCOc1ccc(-c2nc(-c3ccc4[nH]ccc4c3)no2)cc1OCC [Compound 153]
–	1.8	0.0031	–	CCOc1ccc(-c2nc(-c3ccc4c(c3)CCN4)no2)cc1OCC [Compound 154]
–	2.2	0.0022	–	CCOc1ccc(-c2nc(-c3ccnc4[nH]ccc34)no2)cc1OCC [Compound 167]
–	0.774	0.0008	–	CCOc1ccc(-c2nc(-c3cccc(CO)c3C)no2)cc1OCC [Compound 177]
–	2	0.0117	–	CCOc1ccc(-c2nc(-c3ccc(C)c(C)c3)no2)cc1OCC [Compound 184]
–	0.606	0.0042	–	CCOc1ccc(-c2nc(-c3ccc(CO)cc3)no2)cc1OCC [Compound 186]
–	1.5	0.007	–	CCOc1ccc(-c2nc(-c3cccc(CO)c3)no2)cc1OCC [Compound 187]
–	0.691	0.0011	–	CCOc1ccc(-c2nc(-c3ccc(CCO)cc3)no2)cc1OCC [Compound 192]
–	0.716	0.0005	–	CCOc1ccc(-c2nc(-c3ccc(CO)cc3C)no2)cc1OCC [Compound 201]
–	–	0.0122	10	CCOc1ccc(-c2nc(-c3ccc(CN(C)C)c(C)c3)no2)cc1OCC [Compound 203]
–	0.938	0.00014	–	CCOc1ccc(-c2nc(-c3ccnc(CO)c3)no2)cc1OCC [Compound 209]
–	–	0.0272	13.5	CCOc1ccc(-c2nc(-c3cccc4ccccc34)no2)cc1OCC [Compound 211]
–	–	0.0159	13.5	CCOc1ccc(-c2nc(-c3ccc(CO)nc3)no2)cc1OCC [Compound 214]
–	0.0135	0.0246	–	CCOc1ccc(-c2nc(-c3cccc4c3CCC4N(C)C)no2)cc1OCC (centres unmarked) [Compound 217]
–	2.9	0.0178	–	CCOc1ccc(-c2nc(-c3cccc4c3CCC4N3CC[C@@H](O)C3)no2)cc1OCC (some centres unmarked) [Compound 228]
–	–	< 0.0005	–	CCOc1ccc(-c2nc(-c3cccc4c3CCN4CCO)no2)cc1OCC [Compound 234]
–	–	0.0821	–	CCOc1ccc(-c2nc(-c3ccnc(CN4CC[C@@H](O)C4)c3)no2)cc1OCC [Compound 235]
–	–	0.686	–	CCOc1ccc(-c2nc(-c3ccc4[nH]cc(CNCCN(C)C)c4c3)no2)cc1OCC [Compound 238]
–	–	0.867	–	CCOc1ccc(-c2nc(-c3ccc4[nH]cc(CNCCO)c4c3)no2)cc1OCC [Compound 239]

EC50 (S1P1; unit μM/uM) [µM]	EC50 (S1P3) [µM]	EC50 (S1P1) [µM]	EC50 (S1P3; unit μM) [µM]	SMILES
–	–	3.1	–	CCOc1ccc(-c2nc(-c3ccc4[nH]cc(CN(C)CCO)c4c3)no2)cc1OCC [Compound 240]
–	–	0.0956	–	CCOc1ccc(-c2nc(-c3ccnc(C(=O)O)c3)no2)cc1OCC [Compound 241]
–	–	0.0265	–	CCOc1ccc(-c2nc(-c3ccnc(C(=O)NCCO)c3)no2)cc1OCC [Compound 242]
–	–	0.0007	–	CCOc1ccc(-c2nc(-c3cccc4c3CCC4NCCN(CC)CC)no2)cc1OCC (centres unmarked) [Compound 243]
–	–	0.0061	–	CCOc1ccc(-c2nc(-c3cccc4c3CCC4N3CC[C@@H](O)C3)no2)cc1OCC (some centres unmarked) [Compound 250]
–	0.692	0.0034	–	CCOc1ccc(-c2nc(-c3cccc(CNCCO)c3C)no2)cc1OCC [Compound 251]
–	–	0.0101	–	CCOc1ccc(-c2nc(-c3ccc(CNCCO)cc3C)no2)cc1OCC [Compound 252]
–	–	0.0266	–	CCOc1ccc(-c2nc(-c3ccc4occc4c3)no2)cc1OCC [Compound 253]
–	–	0.0073	–	CCOc1ccc(-c2noc(-c3ccncc3)n2)cc1OCC [Compound 257]
–	–	0.001	–	CCOc1ccc(-c2nc(-c3ccc4c(c3)CCN4CCCO)no2)cc1OCC [Compound 258]
–	–	< 0.0005	–	CC(C)Oc1ccc(-c2nc(-c3cccc4c3CCC4O)no2)cc1C(F)(F)F (centres unmarked) [Compound 259, 4-(5-(4-isopropoxy-3-(trifluoromethyl)phenyl)-1,2,4-oxadiazol-3-yl)-2,3-dihydro-1H-inden-1-ol]
–	–	< 0.0005	–	CCOc1ccc(-c2nc(-c3cccc4c3CCC4O)no2)cc1C(F)(F)F (centres unmarked) [Compound 260, 4-(5-(4-ethoxy-3-(trifluoromethyl)phenyl)-1,2,4-oxadiazol-3-yl)-2,3-dihydro-1H-inden-1-ol]
–	–	< 0.0005	–	CCOc1ccc(-c2nc(-c3cccc4c3CCC4O)no2)cc1C#N (centres unmarked) [Compound 262, 2-ethoxy-5-(3-(1-hydroxy-2,3-dihydro-1H-inden-4-yl)-1,2,4-oxadiazol-5-yl)benzonitrile]
–	–	0.01	–	CC(C)Oc1ccc(-c2nc(-c3cccc4c3CCC4NCCO)no2)cc1C(F)(F)F (centres unmarked) [Compound 263, 2-(4-(5-(4-isopropoxy-3-(trifluoromethyl)phenyl)-1,2,4-oxadiazol-3-yl)-2,3-dihydro-1H-inden-1-ylamino)ethanol]
–	–	0.008	–	CCOc1ccc(-c2nc(-c3cccc4c3CCC4NCCO)no2)cc1C(F)(F)F (centres unmarked) [Compound 264, 2-(4-(5-(4-ethoxy-3-(trifluoromethyl)phenyl)-1,2,4-oxadiazol-3-yl)-2,3-dihydro-1H-inden-1-ylamino)ethanol]
–	–	0.224	–	CCOc1ccc(-c2nc(-c3cccc4c3CCC4O)no2)cc1[N+](=O)[O-] (centres unmarked) [Compound 266, 4-(5-(4-ethoxy-3-nitrophenyl)-1,2,4-oxadiazol-3-yl)-2,3-dihydro-1H-inden-1-ol]
–	–	0.0107	–	CCOc1ccc(-c2ncc(-c3ccncc3)o2)cc1OCC [Compound 268]
–	–	0.112	–	CCOc1ccc(-c2cc(-c3ccncc3)no2)cc1OCC [Compound 269]
–	–	0.0025	–	CC(C)Oc1ccc(-c2ncc(-c3cccc4c3CCC4O)o2)cc1C#N (centres unmarked) [Compound 270]
–	–	< 0.0005	–	CC(C)Oc1ccc(-c2ncc(-c3cccc4c3CCC4NCCO)o2)cc1C#N (centres unmarked) [Compound 271]
